This is an account of results in patent publication US20180284123A1, “BARCODED RAPID ASSAY PLATFORM USEFUL FOR EFFICIENT ANALYSIS OF CANDIDATE MOLECULES AND METHODS OF MAKING AND USING THE PLATFORM” (California Institute of Technology, priority 2017, published 2018).

SMILES strings stand for the structures. Numbered stars: 1 amine (or outer) side, 2 acyl side, 3 side chain; on linkers, the order of the positions; unused ones are H or OH. Bridge positions count the residues as written; N and C are the ends. Square brackets hold non-standard residues; d marks the D form. Triazole bridges read from a SMILES are 1,4-linked. Peptide text beside a SMILES is read from it. * marks the point of attachment. Biotin = O=C1N[C@H]2[C@H](CS[C@H]2CCCCC(=O)*)N1; Lys(N3) = [N-]=[N+]=NCCCC[C@H](N)C(=O)O; Ethylenediamine = C(CN[*:2])N[*:1]; PEG5 = NCCOCCOCCOCCOCCOCCC(=O)O; Pra = C#CC[C@H](N)C(=O)O

For the experiment, the target named is T1, KRAS (Homo sapiens, UniProt P01116).
T1 construct: His6-tagged human KRas Isoform 4B (residues 1-169); His6; made in house; host or cells: E. coli BL21(DE3), PQE80 vector
T1 sequence (P01116 1-169 isoform P01116-2): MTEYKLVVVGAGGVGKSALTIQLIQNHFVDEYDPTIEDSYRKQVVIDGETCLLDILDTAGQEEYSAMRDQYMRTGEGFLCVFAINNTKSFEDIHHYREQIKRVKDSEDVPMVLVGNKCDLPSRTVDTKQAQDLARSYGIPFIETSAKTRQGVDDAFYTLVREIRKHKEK
Nature of the experiment: B-RAP surface immunofluorescent assay, PCC ligand KRas EC50. The experiment is classed as binding. The conditions noted are these: for Avg F635, Full Centroid / Avg F635, Full Lane / avg F635, Left Part Centroid / avg F635, Middle Part Centroid / avg F635, Right Part Centroid: 10 μM KRas well of plate #1, pixel by pixel; for avg F635, Left Part Centroid: left part of centroid; for avg F635, Middle Part Centroid: middle part of centroid; for avg F635, Right Part Centroid: right part of centroid; for EC50: 13-point KRas concentration series, each point in decaplicate, Hill coefficient=1. The procedure: The barcode patterned microchip surface was partitioned into 16 individual microwells using a pre-fabricated PDMS slab. Individual biotinylated PCC candidates were complexed to specific SAC-DNA conjugates, combined into a cocktail, and then self-assembled, via DNA hybridization, onto designated barcode stripes (FIGS. 2-4). Incubation with a specific concentration of the target protein preceded incubation with a primary capture antibody and then a fluorophore-conjugated secondary detection antibody. During assay execution, each well represents a different target concentration or assay condition. Once developed, the fluorescence of the barcodes is digitized using a GenePix 4400A array scanner, with an excitation laser power optimized to a power level of 40% (60 W), which maximizes detection sensitivity while also minimizing signal saturation. Data extraction occurs using 10 μm radius circles, taken along the length of a barcode stripe. A fluorescence signal representing the average of all the pixels within a given circle is collected. A total of ten circles (data-blocks) are measured along a 180 μm span of the middle portion for each individual barcode lane in a given well. 10 μM KRas protein gave an average F635 of 47,868.7, with a standard deviation of 4154.53. 1 μM KRas protein gave an average F635 of 11437.6, with a standard deviation of 1602.202. 100 nM KRas protein gave an average F635 of 1780.6, with a standard deviation of 236.38. This illustrates the intensity across a stripe compared to the intensity from the data-block extraction. After extraction the data is background corrected. The background signal arises from (a) non-specific binding of the primary and secondary antibodies (independent of [KRas]), but can vary across different barcode stripes), and (b) non-specific binding of KRas protein ([KRas] dependent). Background (a) was assessed by measuring the average signal in the null protein well for each stripe. Background (b) was assessed by measuring the average fluorescence for the dummy ligand (Biotin* probe) that was in each well. The background subtracted data was then graphed in Graphpad Prism 7 and fitted to a sigmoidal curve (Hill coefficient=1).
Measurement of PCC Ligand KRas EC50 with the Barcode Rapid Assay Platform
Protein Incubation Buffer: Tris-buffered saline (TBS)+0.05% Tween20 (TBST)
A pre-fabricated PDMS template was aligned onto the DNA barcode microchip, and the microchip was taped into a 10 cm petri dish. The wells on the platform were wet with 50 μL PBST before filling with blocking buffer and placing into a 37° C. incubator for 1 hr. Concurrently, 40 μL 1% BSA in PBS solutions containing 750 nM of a SAC-DNA conjugate and 3.75 μM of one biotinylated PCC ligand or biotin-A20-Cy3 blank were prepared for each SAC-DNA conjugate. The biotinylated ligands were allowed to complex with the SAC protein for one hour before pooling the SAC-DNA-ligand solutions (final [SAC-DNA-ligand conjugates]=50 nM). The blocking buffer was aspirated and each well was loaded with the SAC-DNA-ligand conjugates cocktail for hybridization with the DNA barcode at 37° C. for one hour. The wells were washed with PBST (3×) before loading serially diluted solutions of KRas protein in protein buffer (0 to 400 μM). After shaking at RT for one hour, the wells were rinsed with PBST (5×), making sure to pipet up/down with the first addition of PB ST. A (100:1) dilution of CST rabbit anti-Ras Ab (#39655) in 1° ab buffer was added to each well before shaking at RT for one hour. After rinsing the wells with PBST (3×), the wells were loaded with a (200:1) dilution of Abcam goat anti-rabbit-Alexafluor 647 linked ab (ab150079) in 2° ab buffer before shaking at RT for one hour. A final rinse of the wells with PBST (3×) proceeded peeling off the PDMS slab from the barcode microchip and dipping the barcode into the following solutions: PBS, (1:1) PBS: MQ H2O, MQ H2O (2×). […]

With `CCC(C)[C@@H]1NC(=O)CNC(=O)[C@H](Cc2cnc[nH]2)NC(=O)[C@@H](N)Cc2cn(nn2)CCCC[C@@H](C(=O)NCCOCCOCCOCCOCCOCCC(=O)NCCNC(=O)CCCC[C@@H]2SC[C@@H]3NC(=O)N[C@@H]32)NC(=O)CNC(=O)[C@H](C(C)C)NC1=O` (single isomer, unassigned) [Ligand L1b, HGIVG], the “Avg F635, Full Centroid” value came out at 24340; the “Avg F635, Full Lane” value worked out at 22519; the “avg F635, Left Part Centroid” value stood at 21889; the “avg F635, Middle Part Centroid” value is listed as 24245. The “avg F635, Right Part Centroid” value was 26959.

Broadly, the EC50 is the concentration at which the effect is half-maximal. The low end stands for higher potency in that assay, the high end for lower potency in that assay. For `CC(C)[C@@H]1NC(=O)[C@H](CCC(=O)O)NC(=O)CNC(=O)[C@@H](N)Cc2cn(nn2)CCCC[C@@H](C(=O)NCCOCCOCCOCCOCCOCCC(=O)NCCNC(=O)CCCC[C@@H]2SC[C@@H]3NC(=O)N[C@@H]32)NC(=O)[C@@H]2CCCN2C(=O)[C@H](C(C)C)NC1=O` (single isomer, unassigned) [Ligand L3a, GEVVP], the “Avg F635, Full Centroid” value is 8117; the “Avg F635, Full Lane” value worked out at 7151; the “avg F635, Left Part Centroid” value is listed as 7137; the “avg F635, Middle Part Centroid” value is on record as 8430. The “avg F635, Right Part Centroid” value turned out to be 8811 and the midpoint of the response, the EC50, lay at 1.49 ± 0.28 µM.

Consider `CC(C)[C@@H]1NC(=O)[C@H](CCC(=O)O)NC(=O)CNC(=O)[C@@H](N)Cc2cn(nn2)CCCC[C@@H](C(=O)NCCOCCOCCOCCOCCOCCC(=O)NCCNC(=O)CCCC[C@@H]2SC[C@@H]3NC(=O)N[C@@H]32)NC(=O)[C@@H]2CCCN2C(=O)[C@H](C(C)C)NC1=O` (single isomer, unassigned) [Ligand L3b, GEVVP], for which the “Avg F635, Full Centroid” value stood at 16158; the “Avg F635, Full Lane” value is recorded as 15157; the “avg F635, Left Part Centroid” value worked out at 15070; the “avg F635, Middle Part Centroid” value turned out to be 16390. For the same molecule, the “avg F635, Right Part Centroid” value came to 17046 and a half-maximal response (EC50) required 13.7 ± 4.8 µM.

As for `CC(C)[C@@H]1NC(=O)[C@@H](N)Cc2cn(nn2)CCCC[C@@H](C(=O)NCCOCCOCCOCCOCCOCCC(=O)NCCNC(=O)CCCC[C@@H]2SC[C@@H]3NC(=O)N[C@@H]32)NC(=O)[C@H](Cc2ccc(O)cc2)NC(=O)[C@@H]2CCCN2C(=O)[C@H](C(C)C)NC(=O)[C@H](CCC(=O)O)NC1=O` (single isomer, unassigned) [Ligand L4a, VEVPY], the “Avg F635, Full Centroid” value came to 11363; the “Avg F635, Full Lane” value is 10434; the “avg F635, Left Part Centroid” value was found to be 10179; the “avg F635, Middle Part Centroid” value was 11181. Further, the “avg F635, Right Part Centroid” value amounted to 12764 and the EC50 came out at 9.51 ± 2.2 µM.

For the molecule `CC(C)[C@@H]1NC(=O)[C@@H](N)Cc2cn(nn2)CCCC[C@@H](C(=O)NCCOCCOCCOCCOCCOCCC(=O)NCCNC(=O)CCCC[C@@H]2SC[C@@H]3NC(=O)N[C@@H]32)NC(=O)[C@H](Cc2ccc(O)cc2)NC(=O)[C@@H]2CCCN2C(=O)[C@H](C(C)C)NC(=O)[C@H](CCC(=O)O)NC1=O` (single isomer, unassigned) [Ligand L4b, VEVPY], the “Avg F635, Full Centroid” value came to 27245; the “Avg F635, Full Lane” value came to 25079; the “avg F635, Left Part Centroid” value is 23307; the “avg F635, Middle Part Centroid” value was 27398. The “avg F635, Right Part Centroid” value was 31147 and the midpoint of the response, the EC50, lay at 52.2 ± 22 µM.

Turning to `CC(C)[C@@H]1NC(=O)[C@H](CCC(=O)O)NC(=O)[C@H](C(C)C)NC(=O)[C@@H](N)Cc2cn(nn2)CCCC[C@@H](C(=O)NCCOCCOCCOCCOCCOCCC(=O)NCCNC(=O)CCCC[C@@H]2SC[C@@H]3NC(=O)N[C@@H]32)NC(=O)[C@@H]2CCCN2C(=O)[C@H](Cc2ccc(O)cc2)NC1=O` (single isomer, unassigned) [Ligand L5a, VEVYP], the “Avg F635, Full Centroid” value is recorded as 8341; the “Avg F635, Full Lane” value stood at 7851; the “avg F635, Left Part Centroid” value is on record as 7918; the “avg F635, Middle Part Centroid” value is reported as 8920. Moreover, the “avg F635, Right Part Centroid” value is reported as 8196.

As for `CC(C)[C@@H]1NC(=O)[C@H](CCC(=O)O)NC(=O)[C@H](C(C)C)NC(=O)[C@@H](N)Cc2cn(nn2)CCCC[C@@H](C(=O)NCCOCCOCCOCCOCCOCCC(=O)NCCNC(=O)CCCC[C@@H]2SC[C@@H]3NC(=O)N[C@@H]32)NC(=O)[C@@H]2CCCN2C(=O)[C@H](Cc2ccc(O)cc2)NC1=O` (single isomer, unassigned) [Ligand L5b, VEVYP], the “Avg F635, Full Centroid” value amounted to 32390; the “Avg F635, Full Lane” value was found to be 31581; the “avg F635, Left Part Centroid” value came to 31947; the “avg F635, Middle Part Centroid” value came to 32789. In addition, the “avg F635, Right Part Centroid” value worked out at 32448.

On to `CC(C)[C@@H]1NC(=O)[C@@H](N)Cc2cn(nn2)CCCC[C@@H](C(=O)NCCOCCOCCOCCOCCOCCC(=O)NCCNC(=O)CCCC[C@@H]2SC[C@@H]3NC(=O)NC32)NC(=O)[C@H](Cc2ccc(O)cc2)NC(=O)[C@@H]2CCCN2C(=O)[C@H](C(C)C)NC(=O)[C@H](CCC(N)=O)NC1=O` (single isomer, unassigned) [Ligand L7a, VQVPY], for which the “Avg F635, Full Centroid” value came out at 36651; the “Avg F635, Full Lane” value is given as 32992; the “avg F635, Left Part Centroid” value turned out to be 32020; the “avg F635, Middle Part Centroid” value is 37152. The “avg F635, Right Part Centroid” value worked out at 40918 and the half-maximal effective concentration (EC50) was 4.22 ± 0.71 µM.

With `CC(C)[C@@H]1NC(=O)[C@@H](N)Cc2cn(nn2)CCCC[C@@H](C(=O)NCCOCCOCCOCCOCCOCCC(=O)NCCNC(=O)CCCC[C@@H]2SC[C@@H]3NC(=O)NC32)NC(=O)[C@H](Cc2ccc(O)cc2)NC(=O)[C@@H]2CCCN2C(=O)[C@H](C(C)C)NC(=O)[C@H](CCC(N)=O)NC1=O` (single isomer, unassigned) [Ligand L7b, VQVPY], the “Avg F635, Full Centroid” value worked out at 16195; the “Avg F635, Full Lane” value came to 14791; the “avg F635, Left Part Centroid” value was found to be 12956; the “avg F635, Middle Part Centroid” value stood at 16944. The “avg F635, Right Part Centroid” value worked out at 18781 and the concentration giving a half-maximal response (EC50) worked out at 25.3 ± 8.9 µM.

In the case of `CC(C)[C@@H]1NC(=O)[C@@H](N)Cc2cn(nn2)CCCC[C@@H](C(=O)NCCOCCOCCOCCOCCOCCC(=O)NCCNC(=O)CCCC[C@@H]2SC[C@@H]3NC(=O)N[C@@H]32)NC(=O)[C@H](Cc2ccc(O)cc2)NC(=O)[C@@H]2CCCN2C(=O)[C@H](C(C)C)NC(=O)[C@H]([C@@H](C)O)NC1=O` [Ligand L6] (H-[Pra]VTVPY[Lys(N3)][PEG5]-{Ethylenediamine-Biotin}; triazole 1-7), the “Avg F635, Full Centroid” value worked out at 17836; the “Avg F635, Full Lane” value came out at 15968; the “avg F635, Left Part Centroid” value was found to be 15645; the “avg F635, Middle Part Centroid” value amounted to 19382. The “avg F635, Right Part Centroid” value was found to be 18546.

On to `CC(C)[C@@H]1NC(=O)[C@@H](N)Cc2cn(nn2)CCCC[C@@H](C(=O)NCCOCCOCCOCCOCCOCCC(=O)NCCNC(=O)CCCC[C@@H]2SC[C@@H]3NC(=O)NC32)NC(=O)[C@H](Cc2ccc(O)cc2)NC(=O)[C@@H]2CCCN2C(=O)[C@H](C(C)C)NC(=O)[C@H](CCC(N)=O)NC1=O` (stereo partly shown) [Ligand L7, VQVPY], for which the “Avg F635, Full Centroid” value stood at 53496; the “Avg F635, Full Lane” value stood at 48537; the “avg F635, Left Part Centroid” value is on record as 48599; the “avg F635, Middle Part Centroid” value stood at 54620. Besides, the “avg F635, Right Part Centroid” value was found to be 57411.
